Values quoted from earlier work in article PMC4060611 (Inorganic Chemistry, 2014).
Counter-ions that a name gives are not always drawn. Like-named read-outs stand apart in the source and are kept apart here. Each block holds one compound with its values, some of them ahead of it.

Tests used:
[1] = 0 to 500 μM, 72 h incubation
[2] = not given; remark: listed apart in the source

Compound: europium compound of 1,4,7,10-tetraazacyclododecane-1,4,7,10-tetraacetic acid [[Eu-DOTA]^−]
effect on cell viability [1]: negligible effect
cellular accumulation: negligible

Compound: NC(=O)CN1CCN(CC(N)=O)CCN(CC(N)=O)CCN(CC(N)=O)CC1.[Eu+3] [[Eu-DOTAm]^3+]
cell association relative to [Eu-DOTA]−: 5 times

Compound: Texas Red
quantum yield ([2]; in water): 30%

Compound: CCN1C(=CC=CC2=[N+](CCCCCC(=O)O)c3ccc(S(=O)(=O)O)cc3C2(C)C)C(C)(C)c2cc(S(=O)(=O)[O-])ccc21 [Cy3]
quantum yield ([2]; in PBS): 4%

More lines, now with the values ahead:

quantum yield ([2]; in PBS): 30%
Compound: CCN1C(=CC=CC=CC2=[N+](CCCCCC(=O)O)c3ccc(S(=O)(=O)O)cc3C2(C)C)C(C)(C)c2cc(S(=O)(=O)[O-])ccc21 [Cy5]

quantum yield Φr ([2]; in 0.1 M sulfuric acid): 0.577
Compound: C=C[C@H]1C[N@@]2CC[C@H]1C[C@H]2[C@H](O)c1ccnc2ccc(OC)cc12 [quinine sulfate]
